Reference: patent US12606561B2, “Substituted pyrazolo[1,5-a][1,3,5]triazines as CDK inhibitors” (QURIENT CO., LTD., priority 2018, dated 2026)

Columns and labels:
CDK1/Cyclin B = biological target: T1, CDK1/Cyclin B (Homo sapiens, UniProt P06493); assay: Enzymatic assay for CDK1 (LANCE Ultra kinase assay, FRET based); format: biochemical; settings: ATP at Km; read-out: CDK1 enzymatic activity IC50
T1 construct: purchased Invitrogen PR4768C
In short: (§1)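 With ATP set at its Km, compounds were tested against purified CDK/cyclin complexes phosphorylating a ULight-labeled peptide. Signal came from FRET between the peptide and a Europium-labeled anti-phospho-antibody.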

CDK2/Cyclin A = biological target: T2, CDK2/Cyclin A (Homo sapiens, UniProt P24941); assay: Enzymatic assay for CDK2 (LANCE Ultra kinase assay, FRET based); format: biochemical; settings: ATP at Km
T2 construct: purchased Invitrogen PV6290
In short: (§2)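 Inhibition was measured at ATP Km with 68 nM ULight-MBP peptide and CDK2/Cyclin A ([…]) or CDK5/p25 ([…]), using 8-dose 4-fold compound dilutions from DMSO. Kinase reaction ran 60 min at 23° C, then Eu anti-phospho-MBP plus EDTA were added for another 60 min before the fluorescence read.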

CDK5/p25 = biological target: T3, CDK5/p25 (Homo sapiens, UniProt Q00535); assay: Enzymatic assay for CDK5 (LANCE Ultra kinase assay, FRET based); format: biochemical; settings: ATP at Km
T3 construct: purchased Invitrogen PR8543B
In short: as §2

CDK7/Cyclin H/MNAT1 = biological target: T4, CDK7/Cyclin H/MNAT1 (Homo sapiens, UniProt P50613); assay: Enzymatic assay for CDK7 (LANCE Ultra kinase assay, FRET based); format: biochemical; settings: for IC50: ATP at Km
T4 construct: purchased Invitrogen PR6749B
In short: as §1

A2780 = A2780 viability assay (CellTiter-Glo, 72 hours); format: cell-based; settings: Homo sapiens; A2780 cells
Experimental: (§3) Human […] cell line, MV4-11_(ATCC, Cat #CRL-9591), NSCLC (Non-small cell lung cancer) cell line H460 (ATCC, Cat #HTB-177), A2780 (ECACC, Cat #93112519) and OVCAR-3(ATCC, Cat #HTB-161) were obtained from ATCC. Cells were grown in RPMI-1640 media (Invitrogen, Cat #22400-089) supplemented with 10% FBS (Invitrogen, Cat #10099141) and 1% penicillin/streptomycin (Invitrogen, Cat #15070063) and cultured at 37° C., 5% CO2 in a humidified chamber. All cell lines were routinely tested for mycoplasma.
(§4) To effect of the CDK7 inhibitor to inhibit the growth of target cancer cells, viability assay were conducted a 72 hour time period. Briefly, the candidate cell line was plated in 96 well plate at the following density of cells respectively. 1×10^4 cells/well for MV4-11, 5×10^3 for H460 and OVCAR-3, and 1×10^3 for A2780. After 24 hours, the cells were treated with various concentrations of the compound (ranging from 0.0015 uM to 10 uM). DMSO solvent without compound served as a control and final DMSO concentration lest than 0.1%. After 72 hours of incubation at 37° C., 5% CO2 incubator, cells were analyzed for the viability using the CellTiter-Glo Luminescent Cell Viability Assay (Promega, Cat #G7570). All viability assays were performed in duplicate and Luminescence was read using an Envision (Perkin Elmer, USA). Data was analyzed using XLfit software.

OVCAR-3 = OVCAR-3 viability assay (CellTiter-Glo, 72 hours); format: cell-based; settings: Homo sapiens; OVCAR-3 cells
Experimental: as §3, §4

T1 sequence (P06493 whole entry): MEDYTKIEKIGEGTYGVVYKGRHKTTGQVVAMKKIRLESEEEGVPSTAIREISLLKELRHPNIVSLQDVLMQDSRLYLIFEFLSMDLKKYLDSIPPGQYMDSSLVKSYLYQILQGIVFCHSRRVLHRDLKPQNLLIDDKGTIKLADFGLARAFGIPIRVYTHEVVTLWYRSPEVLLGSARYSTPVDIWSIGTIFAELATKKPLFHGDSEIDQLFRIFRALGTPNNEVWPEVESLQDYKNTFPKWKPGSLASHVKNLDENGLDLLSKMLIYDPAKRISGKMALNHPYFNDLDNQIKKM
T1 sequence (P14635 whole entry partner): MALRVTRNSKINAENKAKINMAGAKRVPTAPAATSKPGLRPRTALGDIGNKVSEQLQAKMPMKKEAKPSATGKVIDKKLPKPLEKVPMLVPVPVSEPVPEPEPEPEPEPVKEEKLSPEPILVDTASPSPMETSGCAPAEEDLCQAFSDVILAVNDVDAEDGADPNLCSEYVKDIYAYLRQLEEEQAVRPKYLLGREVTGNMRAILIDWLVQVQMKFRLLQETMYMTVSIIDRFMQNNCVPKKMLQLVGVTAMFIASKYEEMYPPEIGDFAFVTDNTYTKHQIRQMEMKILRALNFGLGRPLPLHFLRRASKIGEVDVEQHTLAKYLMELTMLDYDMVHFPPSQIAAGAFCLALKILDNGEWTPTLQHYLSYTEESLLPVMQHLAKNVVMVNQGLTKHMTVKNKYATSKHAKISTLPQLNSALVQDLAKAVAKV
T3 sequence (Q00535 whole entry): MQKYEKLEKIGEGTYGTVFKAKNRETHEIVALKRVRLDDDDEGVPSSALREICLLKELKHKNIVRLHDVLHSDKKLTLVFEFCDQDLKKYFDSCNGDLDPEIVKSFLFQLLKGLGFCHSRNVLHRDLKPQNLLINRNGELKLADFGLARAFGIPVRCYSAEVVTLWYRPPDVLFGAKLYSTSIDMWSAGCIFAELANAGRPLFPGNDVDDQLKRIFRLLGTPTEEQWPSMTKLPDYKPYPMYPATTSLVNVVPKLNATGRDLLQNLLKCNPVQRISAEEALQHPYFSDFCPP
T3 sequence (Q15078 99-307 partner limits assumed): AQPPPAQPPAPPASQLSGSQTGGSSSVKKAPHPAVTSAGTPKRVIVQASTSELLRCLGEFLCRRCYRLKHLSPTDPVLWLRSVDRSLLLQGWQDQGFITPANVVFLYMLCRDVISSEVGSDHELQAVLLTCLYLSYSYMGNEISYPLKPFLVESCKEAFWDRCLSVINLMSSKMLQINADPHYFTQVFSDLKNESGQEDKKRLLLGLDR
T4 sequence (P50613 whole entry): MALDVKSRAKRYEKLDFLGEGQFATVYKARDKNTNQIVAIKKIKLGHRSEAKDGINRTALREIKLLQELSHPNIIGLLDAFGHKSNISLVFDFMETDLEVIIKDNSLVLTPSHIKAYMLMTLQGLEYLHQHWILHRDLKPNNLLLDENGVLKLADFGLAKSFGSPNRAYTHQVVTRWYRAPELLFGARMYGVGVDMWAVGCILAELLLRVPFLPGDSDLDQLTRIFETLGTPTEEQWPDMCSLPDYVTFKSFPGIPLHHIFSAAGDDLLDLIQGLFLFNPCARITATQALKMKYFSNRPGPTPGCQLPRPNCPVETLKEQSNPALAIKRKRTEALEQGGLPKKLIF
T4 sequence (P51946 whole entry partner): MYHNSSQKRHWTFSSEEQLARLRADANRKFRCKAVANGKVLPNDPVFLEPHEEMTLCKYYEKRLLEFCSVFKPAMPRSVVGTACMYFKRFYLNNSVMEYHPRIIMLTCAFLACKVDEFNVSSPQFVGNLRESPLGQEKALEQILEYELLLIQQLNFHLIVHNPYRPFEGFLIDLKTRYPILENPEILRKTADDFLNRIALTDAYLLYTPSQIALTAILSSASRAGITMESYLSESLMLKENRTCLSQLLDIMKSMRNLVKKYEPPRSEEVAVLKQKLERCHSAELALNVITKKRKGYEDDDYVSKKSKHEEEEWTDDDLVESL
T4 sequence (P51948 whole entry partner): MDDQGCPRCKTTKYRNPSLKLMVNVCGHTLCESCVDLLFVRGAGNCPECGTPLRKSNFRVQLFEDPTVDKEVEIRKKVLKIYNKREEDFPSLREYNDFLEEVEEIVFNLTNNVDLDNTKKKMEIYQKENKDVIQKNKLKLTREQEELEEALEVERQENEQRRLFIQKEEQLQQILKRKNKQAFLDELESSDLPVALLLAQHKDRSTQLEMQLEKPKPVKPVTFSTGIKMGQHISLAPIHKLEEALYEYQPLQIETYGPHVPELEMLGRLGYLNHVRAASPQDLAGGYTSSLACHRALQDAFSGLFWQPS

SMILES	IC50 (CDK1/Cyclin B)	IC50 (CDK2/Cyclin A)	IC50 (CDK5/p25)	IC50 (CDK7/Cyclin H/MNAT1)	CDK1/CDK7: Selectivity of CDK7 inhibition over CDK1 inhibition (CDK7/Cyclin H/MNAT1)	CDK2/CDK7: Selectivity of CDK7 inhibition over CDK2 inhibition (CDK7/Cyclin H/MNAT1)	CDK5/CDK7: Selectivity of CDK7 inhibition over CDK5 inhibition (CDK7/Cyclin H/MNAT1)	IC50 (A2780)	IC50 (OVCAR-3)
CC(C)c1cnn2c(NCc3ccccc3-c3nccc4cc(NC(=O)/C=C/CN(C)C)ccc34)nc(N3CC4(COC4)C3)nc12 [Compound 108]	> 1000 nM	> 1000 nM	> 1000 nM	100 to 1000 nM	C (C indicates [fold] ≤ 50)	C (C indicates [fold] ≤ 50)	C (C indicates [fold] ≤ 50)	< 1000 nM	< 1000 nM
Cc1cc(NCc2ccccc2-c2nccc3cc(NC(=O)/C=C/CN(C)C)ccc23)n2ncc(C(C)C)c2n1 [Compound 153]	> 1000 nM	> 1000 nM	> 1000 nM	< 100 nM	A (A indicates [fold] > 500)	A (A indicates [fold] > 500)	A (A indicates [fold] > 500)	< 1000 nM	< 1000 nM
C=C(F)C(=O)Nc1cccc2ccc(-c3cccc(C)c3CNc3nc(N4CCC(OC)CC4)nc4c(C(C)C)cnn34)nc12 [Compound 93]	> 1000 nM	> 1000 nM	> 1000 nM	> 1000 nM	C (C indicates [fold] ≤ 50)	C (C indicates [fold] ≤ 50)	C (C indicates [fold] ≤ 50)	< 1000 nM	1000 to 10000 nM
C=C(F)C(=O)Nc1ccc2c(-c3ccccc3CNc3nc(N[C@@H]4CCC(C)(C)NC4)nc4c(C(C)C)cnn34)nccc2c1 [Compound 174]	> 1000 nM	> 1000 nM	> 1000 nM	< 100 nM	A (A indicates [fold] > 500)	A (A indicates [fold] > 500)	A (A indicates [fold] > 500)	< 1000 nM	< 1000 nM
C=C(F)C(=O)Nc1ccc2c(-c3ccccc3CNc3nc(N[C@@H]4CCCN(C)C4)nc4c(C(C)C)cnn34)nccc2c1 [Compound 173]	> 1000 nM	> 1000 nM	> 1000 nM	< 100 nM	A (A indicates [fold] > 500)	A (A indicates [fold] > 500)	A (A indicates [fold] > 500)	< 1000 nM	< 1000 nM
C=C(F)C(=O)Nc1ccc2c(-c3ccccc3CNc3nc(OC4CCC(C)(C)NC4)nc4c(C(C)C)cnn34)nccc2c1 (stereo not shown) [Compound 177]	> 1000 nM	> 1000 nM	> 1000 nM	< 100 nM	A (A indicates [fold] > 500)	A (A indicates [fold] > 500)	A (A indicates [fold] > 500)	< 1000 nM	< 1000 nM
C=C(Cl)C(=O)Nc1ccc2c(-c3ccccc3CNc3nc(N[C@H]4CC[C@H](OC)CC4)nc4c(C(C)C)cnn34)nccc2c1 [Compound 209]	> 1000 nM	> 1000 nM	> 1000 nM	< 100 nM	A (A indicates [fold] > 500)	A (A indicates [fold] > 500)	A (A indicates [fold] > 500)	< 1000 nM	–
C=CC(=O)Nc1ccc2c(-c3ccccc3CNc3cc(Nc4cccc(OC5CCC(C)(C)NC5)c4)nc4c(C(C)C)cnn34)nccc2c1 (stereo not shown) [Compound 187]	> 1000 nM	> 1000 nM	> 1000 nM	< 100 nM	A (A indicates [fold] > 500)	A (A indicates [fold] > 500)	A (A indicates [fold] > 500)	< 1000 nM	–
